Test results as given in paper PMC5218480 (PLoS ONE, 2017).

Test system: MV-4-11 cells
Experiment: Gene expression microarray analysis (Affymetrix PrimeView) and GSEA
Assay type: cell-based, human
Set-up: RFU PODN (11730768_x_at) / Fold change /veh PODN (11730768_x_at) / RFU LINC00158 (11744669_a_at) / Fold change /veh LINC00158 (11744669_a_at) / RFU DUSP10 (11751237_a_at) / Fold change /veh DUSP10 (11751237_a_at) / RFU ID3 (11757404_x_at) / Fold change /veh ID3 (11757404_x_at) / RFU PLEKHG5 (11737974_s_at) / Fold change /veh PLEKHG5 (11737974_s_at) / RFU LRRC4B (11730491_at) / Fold change /veh LRRC4B (11730491_at) / RFU GIMAP4 (11747438_a_at) / Fold change /veh GIMAP4 (11747438_a_at) / RFU KRT8 (11758183_x_at) / Fold change /veh KRT8 (11758183_x_at) / RFU CNN1 (11734310_a_at) / Fold change /veh CNN1 (11734310_a_at) / RFU VPS37D (11726825_at) / Fold change /veh VPS37D (11726825_at) / RFU C10orf10 (11716522_x_at) / Fold change /veh C10orf10 (11716522_x_at) / RFU KIR2DL2 /// KIR2DL4 /// KIR2DL5A /// KIR2DL5B /// KIR2DS1 /// KIR2DS2 /// KIR2DS3 /// KIR2DS4 /// KIR3DL3 /// KIR3DL3 /// KIR3DS1 (11738374_at) / Fold change /veh KIR2DL2 /// KIR2DL4 /// KIR2DL5A /// KIR2DL5B /// KIR2DS1 /// KIR2DS2 /// KIR2DS3 /// KIR2DS4 /// KIR3DL3 /// KIR3DL3 /// KIR3DS1 (11738374_at) / RFU C1QL1 (11718748_at) / Fold change /veh C1QL1 (11718748_at) / RFU TMPRSS4 (11747572_a_at) / Fold change /veh TMPRSS4 (11747572_a_at) / RFU HAMP (11756126_x_at) / Fold change /veh HAMP (11756126_x_at) / RFU RNFT2 (11725882_a_at) / Fold change /veh RNFT2 (11725882_a_at) / RFU NR4A2 (11747474_a_at) / Fold change /veh NR4A2 (11747474_a_at) / RFU ABCC12 (11746883_a_at) / Fold change /veh ABCC12 (11746883_a_at) / RFU TMEM136 (11760407_x_at) / Fold change /veh TMEM136 (11760407_x_at) / RFU CLDN22 /// WWC2 (11732394_at) / Fold change /veh CLDN22 /// WWC2 (11732394_at) / RFU HLA-DPB1 (11760878_x_at) / Fold change /veh HLA-DPB1 (11760878_x_at) / RFU SPINT1 (11716480_a_at) / Fold change /veh SPINT1 (11716480_a_at) / RFU GAP43 (11754022_s_at) / Fold change /veh GAP43 (11754022_s_at) / RFU A4GNT (11735810_at) / Fold change /veh A4GNT (11735810_at) / RFU PRB3 (11715151_x_at) / Fold change /veh PRB3 (11715151_x_at) / RFU TUBB4B (11761932_at) / Fold change /veh TUBB4B (11761932_at) / RFU CAPN14 (11732068_a_at) / Fold change /veh CAPN14 (11732068_a_at) / RFU TMCC2 (11721928_a_at) / Fold change /veh TMCC2 (11721928_a_at) / RFU IRGQ (11745062_a_at) / Fold change /veh IRGQ (11745062_a_at) / RFU FAM174B (11720279_a_at) / Fold change /veh FAM174B (11720279_a_at) / RFU TMPRSS4 (11748680_a_at) / Fold change /veh TMPRSS4 (11748680_a_at) / RFU FAM212B (11763350_a_at) / Fold change /veh FAM212B (11763350_a_at) / RFU PLEKHG5 (11743358_a_at) / Fold change /veh PLEKHG5 (11743358_a_at) / RFU ZSCAN30 (11745921_a_at) / Fold change /veh ZSCAN30 (11745921_a_at) / RFU CMKLR1 (11741424_a_at) / Fold change /veh CMKLR1 (11741424_a_at) / RFU LOC101060620 /// MAPK8IP1 (11723275_at) / Fold change /veh LOC101060620 /// MAPK8IP1 (11723275_at) / RFU SPTSSB (11747773_x_at) / Fold change /veh SPTSSB (11747773_x_at) / RFU PRSS12 (11739890_at) / Fold change /veh PRSS12 (11739890_at) / RFU BIN1 (11741810_x_at) / Fold change /veh BIN1 (11741810_x_at) / RFU WNT11 (11732464_a_at) / Fold change /veh WNT11 (11732464_a_at) / RFU C10orf10 (11716521_a_at) / Fold change /veh C10orf10 (11716521_a_at) / RFU C5orf56 (11738089_at) / Fold change /veh C5orf56 (11738089_at) / RFU CYB561 (11721691_x_at) / Fold change /veh CYB561 (11721691_x_at) / RFU ANKRD19P (11752326_a_at) / Fold change /veh ANKRD19P (11752326_a_at) / RFU OR2T12 /// OR2T33 /// OR2T8 (11738714_s_at) / Fold change /veh OR2T12 /// OR2T33 /// OR2T8 (11738714_s_at) / RFU VCAN (11748164_a_at) / Fold change /veh VCAN (11748164_a_at) / RFU JSRP1 (11732532_at) / Fold change /veh JSRP1 (11732532_at) / RFU KRTAP10-11 (11738290_x_at) / Fold change /veh KRTAP10-11 (11738290_x_at) / RFU MYO3A (11730013_a_at) / Fold change /veh MYO3A (11730013_a_at) / RFU EBF3 (11725865_a_at) / Fold change /veh EBF3 (11725865_a_at) / RFU CAMK2N1 (11719241_x_at) / Fold change /veh CAMK2N1 (11719241_x_at) / RFU C5orf56 (11738088_a_at) / Fold change /veh C5orf56 (11738088_a_at) / RFU OLFML3 (11715873_a_at) / Fold change /veh OLFML3 (11715873_a_at) / RFU LOC100653217 /// NTM (11731650_a_at) / Fold change /veh LOC100653217 /// NTM (11731650_a_at) / RFU MAPK11 (11762145_a_at) / Fold change /veh MAPK11 (11762145_a_at) / RFU FIZ1 (11724087_x_at) / Fold change /veh FIZ1 (11724087_x_at) / RFU OASL (11726364_x_at) / Fold change /veh OASL (11726364_x_at) / RFU SOX15 (11748057_x_at) / Fold change /veh SOX15 (11748057_x_at) / RFU CD79A (11719716_a_at) / Fold change /veh CD79A (11719716_a_at) / RFU HIST1H1D (11736915_at) / Fold change /veh HIST1H1D (11736915_at) / RFU CASKIN2 (11723855_a_at) / Fold change /veh CASKIN2 (11723855_a_at) / RFU LOC730098 (11760151_x_at) / Fold change /veh LOC730098 (11760151_x_at) / RFU OR4N2 (11742367_at) / Fold change /veh OR4N2 (11742367_at) / RFU PRRT2 (11749266_a_at) / Fold change /veh PRRT2 (11749266_a_at) / RFU SNX32 (11753110_a_at) / Fold change /veh SNX32 (11753110_a_at) / RFU CDHR5 (11726645_a_at) / Fold change /veh CDHR5 (11726645_a_at) / RFU RCAN1 (11760418_a_at) / Fold change /veh RCAN1 (11760418_a_at) / RFU FAM167A (11723789_a_at) / Fold change /veh FAM167A (11723789_a_at) / RFU FAM26E (11764081_at) / Fold change /veh FAM26E (11764081_at) / RFU ISYNA1 (11749810_s_at) / Fold change /veh ISYNA1 (11749810_s_at) / RFU ACY1 (11761880_at) / Fold change /veh ACY1 (11761880_at) / RFU 11764098_at / Fold change /veh 11764098_at / RFU SAMD14 (11745864_x_at) / Fold change /veh SAMD14 (11745864_x_at) / RFU NPB (11741838_a_at) / Fold change /veh NPB (11741838_a_at) / RFU TMPRSS6 (11731388_a_at) / Fold change /veh TMPRSS6 (11731388_a_at) / RFU KRTAP10-2 (11738614_at) / Fold change /veh KRTAP10-2 (11738614_at) / RFU ARHGAP8 /// PRR5-ARHGAP8 (11727945_x_at) / Fold change /veh ARHGAP8 /// PRR5-ARHGAP8 (11727945_x_at) / RFU KRTAP5-7 /// NADSYN1 (11734609_at) / Fold change /veh KRTAP5-7 /// NADSYN1 (11734609_at) / RFU RASL12 (11751679_a_at) / Fold change /veh RASL12 (11751679_a_at) / RFU CDKN2B (11736163_a_at) / Fold change /veh CDKN2B (11736163_a_at) / RFU PRF1 (11729649_at) / Fold change /veh PRF1 (11729649_at) / RFU, ZNF638 /// ZNF638-IT1 / Fold change vs veh, ZNF638 /// ZNF638-IT1 / RFU, PANK3 / Fold change vs veh, PANK3 / RFU, SH3YL1 / Fold change vs veh, SH3YL1 / RFU, ZEB2 / Fold change vs veh, ZEB2 / RFU, NRIP1 / Fold change vs veh, NRIP1 / RFU, PTTG1IP / Fold change vs veh, PTTG1IP / RFU, CAPN2 / Fold change vs veh, CAPN2 / RFU, MED14 / Fold change vs veh, MED14 / RFU, SNORA58 / Fold change vs veh, SNORA58 / RFU, C1orf63 / Fold change vs veh, C1orf63 / RFU, LRRFIP1 / Fold change vs veh, LRRFIP1 / RFU, NDUFAF7 / Fold change vs veh, NDUFAF7 / RFU, SLC12A2 / Fold change vs veh, SLC12A2 / RFU, IBTK / Fold change vs veh, IBTK / RFU, ESF1 / Fold change vs veh, ESF1 / Fold change vs veh, TMEM50B / RFU, TAOK1 / Fold change vs veh, TAOK1 / RFU, ACBD3 / Fold change vs veh, ACBD3 / RFU, TMA16 / Fold change vs veh, TMA16 / RFU, RWDD3 / Fold change vs veh, RWDD3 / RFU, BCAT1 / Fold change vs veh, BCAT1 / RFU, EDEM3 / Fold change vs veh, EDEM3 / RFU, TMEM33 / Fold change vs veh, TMEM33 / RFU, WDR75 / Fold change vs veh, WDR75 / RFU, AHCTF1 / Fold change vs veh, AHCTF1 / RFU, TFRC / Fold change vs veh, TFRC / RFU, ZDHHC17 / Fold change vs veh, ZDHHC17 / RFU, NOM1 / Fold change vs veh, NOM1 / RFU, ARL8B / Fold change vs veh, ARL8B / RFU, ZBTB11 / Fold change vs veh, ZBTB11 / RFU, TAMM41 / Fold change vs veh, TAMM41 / RFU, KIAA1704 /// LOC100996395 / Fold change vs veh, KIAA1704 /// LOC100996395 / RFU, ING1 / Fold change vs veh, ING1 / RFU, TRMT61B / Fold change vs veh, TRMT61B / RFU, FUBP3 / Fold change vs veh, FUBP3 / RFU, TP53 / Fold change vs veh, TP53 / RFU, TNKS2 / Fold change vs veh, TNKS2 / RFU, ZFP14 / Fold change vs veh, ZFP14 / RFU, ACTR2 / Fold change vs veh, ACTR2 / RFU, PPP3R1 / Fold change vs veh, PPP3R1 / RFU, PIK3R1 / Fold change vs veh, PIK3R1 / RFU, HNRNPA1 / Fold change vs veh, HNRNPA1 / RFU, RNF170 / Fold change vs veh, RNF170 / RFU, ZNF28 / Fold change vs veh, ZNF28 / RFU, RNGTT / Fold change vs veh, RNGTT / RFU, OGT / Fold change vs veh, OGT / RFU, BRD1 / Fold change vs veh, BRD1 / RFU, MARS / Fold change vs veh, MARS / RFU, ZNF655 / Fold change vs veh, ZNF655 / RFU, FAHD1 / Fold change vs veh, FAHD1 / RFU, BDP1 / Fold change vs veh, BDP1 / RFU, LRRCC1 / Fold change vs veh, LRRCC1 / RFU, ARID1A / Fold change vs veh, ARID1A / RFU, ZNF146 / Fold change vs veh, ZNF146 / RFU, ZNF330 / Fold change vs veh, ZNF330 / RFU, GPN3 / Fold change vs veh, GPN3 / RFU, C9orf123 / Fold change vs veh, C9orf123 / RFU, N4BP2L2 / Fold change vs veh, N4BP2L2 / RFU, ARFIP1 / Fold change vs veh, ARFIP1 / RFU, FAM179B / Fold change vs veh, FAM179B / RFU, BCL10 / Fold change vs veh, BCL10 / RFU, UHRF1BP1L / Fold change vs veh, UHRF1BP1L / RFU, BET1 / Fold change vs veh, BET1 / RFU, CNOT2 / Fold change vs veh, CNOT2 / RFU, ZNF268 / Fold change vs veh, ZNF268 / Fold change vs veh, ZNF507 / RFU, DGCR2 / Fold change vs veh, DGCR2 / RFU, WDSUB1 / Fold change vs veh, WDSUB1 / Fold change vs veh, HSP90B1 /// MIR3652 / RFU, ADSS / Fold change vs veh, ADSS / RFU, GK / Fold change vs veh, GK / RFU, ZNF148 / Fold change vs veh, ZNF148 / RFU, TAF9 / Fold change vs veh, TAF9 / RFU, SLC1A5 / Fold change vs veh, SLC1A5 / RFU, SLMO2 / Fold change vs veh, SLMO2 / RFU, ABCC4 / Fold change vs veh, ABCC4 / RFU, LOC101060439 /// RAP1B / Fold change vs veh, LOC101060439 /// RAP1B / RFU, RFX7 / Fold change vs veh, RFX7 / RFU, GTPBP10 / Fold change vs veh, GTPBP10 / RFU, CNEP1R1 / Fold change vs veh, CNEP1R1 / RFU, BIVM-ERCC5 /// ERCC5 / Fold change vs veh, BIVM-ERCC5 /// ERCC5 / RFU, ILF3 / Fold change vs veh, ILF3 / RFU 11762660_at / Fold change /veh 11762660_at / RFU VCAN (11757783_s_at) / Fold change /veh VCAN (11757783_s_at) / RFU DDX43 (11728927_at) / Fold change /veh DDX43 (11728927_at) / RFU KRT8 (11758188_x_at) / Fold change /veh KRT8 (11758188_x_at) / RFU NKD1 (11759106_at) / Fold change /veh NKD1 (11759106_at) / RFU SRD5A1 (11742802_a_at) / Fold change /veh SRD5A1 (11742802_a_at) / RFU TPSAB1 /// TPSB2 (11721975_s_at) / Fold change /veh TPSAB1 /// TPSB2 (11721975_s_at) / RFU GSTM3 (11746129_a_at) / Fold change /veh GSTM3 (11746129_a_at) / RFU IL23R (11737362_x_at) / Fold change /veh IL23R (11737362_x_at) / RFU TMEM51 (11727254_a_at) / Fold change /veh TMEM51 (11727254_a_at) / RFU PIWIL2 (11732686_x_at) / Fold change /veh PIWIL2 (11732686_x_at) / RFU ORM1 (11744905_x_at) / Fold change /veh ORM1 (11744905_x_at) / RFU CCDC152 (11743942_at) / Fold change /veh CCDC152 (11743942_at) / RFU ECM1 (11717891_a_at) / Fold change /veh ECM1 (11717891_a_at) / RFU IL23R (11748794_a_at) / Fold change /veh IL23R (11748794_a_at) / RFU TNFAIP8L3 (11732012_x_at) / Fold change /veh TNFAIP8L3 (11732012_x_at) / RFU MBOAT4 (11741988_at) / Fold change /veh MBOAT4 (11741988_at) / RFU 11764193_at / Fold change /veh 11764193_at / RFU TMEM53 (11763286_at) / Fold change /veh TMEM53 (11763286_at) / RFU MAGEB2 (11727129_at) / Fold change /veh MAGEB2 (11727129_at) / RFU TMEM200A (11744735_a_at) / Fold change /veh TMEM200A (11744735_a_at) / RFU CCDC152 (11751479_a_at) / Fold change /veh CCDC152 (11751479_a_at) / RFU FAM211A (11726209_a_at) / Fold change /veh FAM211A (11726209_a_at) / RFU RGS16 (11746705_a_at) / Fold change /veh RGS16 (11746705_a_at) / RFU VCAN (11755009_s_at) / Fold change /veh VCAN (11755009_s_at) / RFU RHOB (11743442_s_at) / Fold change /veh RHOB (11743442_s_at) / RFU RGS16 (11720943_a_at) / Fold change /veh RGS16 (11720943_a_at) / RFU RGS16 (11720944_at) / Fold change /veh RGS16 (11720944_at) / RFU, VPS4B / Fold change vs veh, VPS4B / RFU, CREB1 / Fold change vs veh, CREB1 / RFU, DNAJC13 / Fold change vs veh, DNAJC13 / RFU, GNAQ / Fold change vs veh, GNAQ / RFU, CDK5R1 / Fold change vs veh, CDK5R1 / RFU, ZRANB3 / Fold change vs veh, ZRANB3 / RFU, CUL4A / Fold change vs veh, CUL4A / RFU, CCNY / Fold change vs veh, CCNY / RFU, UFL1 / Fold change vs veh, UFL1 / RFU, COG3 / Fold change vs veh, COG3 / RFU, DIAPH2 / Fold change vs veh, DIAPH2 / RFU, SKA2 / Fold change vs veh, SKA2 / RFU, AFF3 / Fold change vs veh, AFF3 / RFU, LMF1 / Fold change vs veh, LMF1 / RFU, IPO11 / Fold change vs veh, IPO11 / RFU, DFFB / Fold change vs veh, DFFB / RFU, FOXP1 / Fold change vs veh, FOXP1 / RFU, CARD8 / Fold change vs veh, CARD8 / RFU, STRN3 / Fold change vs veh, STRN3 / RFU, ADK / Fold change vs veh, ADK / RFU, RASSF2 / Fold change vs veh, RASSF2 / RFU, WIPF1 / Fold change vs veh, WIPF1 / RFU, LARP1B / Fold change vs veh, LARP1B / RFU, RASA1 / Fold change vs veh, RASA1 / RFU, RB1 / Fold change vs veh, RB1 / RFU, PPFIA1 / Fold change vs veh, PPFIA1 / RFU, MAT2A / Fold change vs veh, MAT2A / RFU, CCT5 / Fold change vs veh, CCT5 / RFU, WDR92 / Fold change vs veh, WDR92 / RFU, CUX1 / Fold change vs veh, CUX1 / RFU, TTC7A / Fold change vs veh, TTC7A / RFU, TMEM135 / Fold change vs veh, TMEM135 / RFU, DEPTOR / Fold change vs veh, DEPTOR / RFU, CPM / Fold change vs veh, CPM / RFU, DNAJB6 / Fold change vs veh, DNAJB6 / RFU, CACNA2D3 / Fold change vs veh, CACNA2D3 / RFU, DTX4 / Fold change vs veh, DTX4 / RFU, TFCP2 / Fold change vs veh, TFCP2 / RFU, GMCL1 /// GMCL1P1 / Fold change vs veh, GMCL1 /// GMCL1P1 / RFU, AEBP2 / Fold change vs veh, AEBP2 / RFU, SNHG1 /// SNORD22 /// SNORD25 /// SNORD26 /// SNORD27 /// SNORD28 /// SNORD29 /// SNORD31 / Fold change vs veh, SNHG1 /// SNORD22 /// SNORD25 /// SNORD26 /// SNORD27 /// SNORD28 /// SNORD29 /// SNORD31 / Fold change (Aza/veh), C12orf56 (ProbeSet 11735607_a_at) / Fold change (ACY-1035/veh), C12orf56 (ProbeSet 11735607_a_at) / Fold change (Aza/veh), FGFR1OP (ProbeSet 11751329_s_at) / Fold change (ACY-1035/veh), FGFR1OP (ProbeSet 11751329_s_at) / Fold change (Aza/veh), VPS36 (ProbeSet 11739960_a_at) / Fold change (ACY-1035/veh), VPS36 (ProbeSet 11739960_a_at) / RFU SYPL1 (11715823_x_at) / Fold change /veh SYPL1 (11715823_x_at) / RFU IGFBP7 (11715501_s_at) / Fold change /veh IGFBP7 (11715501_s_at) / RFU REEP3 (11722064_at) / Fold change /veh REEP3 (11722064_at) / RFU IGLL1 (11728026_x_at) / Fold change /veh IGLL1 (11728026_x_at): dose or concentration left out as unconfirmed
Settings: ProbeSet 11725902_s_at; LIST D

## Nc1ccc(-c2cccs2)cc1NC(=O)c1ccc2c(c1)cc(C1CC1)n2CCN1CCOCC1 [ACY-1035]
  RFU, TMEM135: 107.94 RFU
